Marks after values point to notes of the source that are not given here.
Columns and labels:
[1] = system: spontaneously hypertensive stroke-prone rats (SHR-SP/Izm); assay: Urine metabolite analysis by NMR (Example 3); assay type: in vivo, rat; details: for Urine metabolic concentration: 4-Hydroxyphenylacetate / Urine metabolic concentration: Glycine / Urine metabolic concentration: N-Phenylacetylglycine / Urine metabolic concentration: Creatinine: Example 3, H-DHA-TG 2,000, DHA-EE 1,303, Tri-DHA-TG 1,246 mg/kg, 4 weeks; for Urine metabolic concentration: Creatinine: normaliser
Procedure: (§1) Spontaneously hypertensive stroke-prone rats (SHR-SP/Izm, Nihon SLC Co., Ltd.) aged 4 weeks were acclimatized for 1 week, then fed an 8-mass % salt-containing solid diet (AlN-93G) and a drinking water freely, and once a day, DHA highly enriched triglycerides (H-DHA-TG), esters (DHA-EE) used in Example 2, and triglycerides (Tri-DHA-TG) prepared in Example 2 were administered by gavage with the amounts shown in Table 3,
(§2) In addition, urine samples were collected before the start of administration and after 4 weeks of administration under fasting for 16 hours, and biochemical tests and metabolite analysis by NMR were performed by conventional methods.

[2] = system: diabetic disease model animals; details: Non-Patent Document 4; cited from earlier work
[3] = system: salt-sensitive spontaneously hypertensive stroke-prone rats; details: Non-Patent Documents 1 and 2; cited from earlier work
[4] = system: spontaneously hypertensive stroke-prone rats (SHR-SP/Izm); assay: Kidney pathology scores GSI and AIS (Example 3); assay type: in vivo, rat; details: H-DHA-TG 2,000, DHA-EE 1,303, Tri-DHA-TG 1,246 mg/kg once a day gavage, 4 weeks, group average
Procedure: as §1
The kidneys were fixed in formalin solution, and then each staining was performed by PAS-staining, Sirius-Red-staining, and immunostaining for α-SMA, CD68, Desmin, and Kim−1 for pathological observations.
For PAS-staining, along with pathomorphological observations, glomerulosclerosis score (GSI), renal artery injury score (AIS) were performed with reference to Clinical and Experimental Hypertension, 2012, 34 (2) 99-106.

[5] = system: spontaneously hypertensive stroke-prone rats (SHR-SP/Izm); assay: Serum and urine biochemical tests, comparison of DHA-bound TG and EE (Example 3); assay type: in vivo, rat; details: H-DHA-TG 2,000, DHA-EE 1,303, Tri-DHA-TG 1,246 mg/kg once a day gavage, 4 weeks; for Urine Alb / Urine Alb/CRE / Urine TP: median
Procedure: as §1, §2
At the end of the test, blood was collected from the abdominal vena cava and necropsied.
Biochemical metabolite analysis was performed on the obtained serum by conventional methods.

Molecule | Urine metabolic concentration: 4-Hydroxyphenylacetate [1] | Urine metabolic concentration: Glycine [1] | Urine metabolic concentration: N-Phenylacetylglycine [1] | Urine metabolic concentration: Creatinine [1] | Blood glucose levels [2] | Renal function protection [3] | AIS (renal artery injury score) [4] | GSI (glomerulosclerosis score) [4] | Serum BUN [5] [mg/dL] | Serum CRE [5] [mg/dL] | Urine CRE [5] [mg/16 h] | Urine Alb [5] | Urine Alb/CRE [5] | Urine TP [5] | Significant differences of urine metabolites vs control, triglycerides compared with esters ([1]; Example 3, Table 6)
CC/C=C\C/C=C\C/C=C\C/C=C\C/C=C\C/C=C\CCC(=O)OCC [DHA-EE, ethyl esters of docosahexaenoic acid] | 0.09 ± 0.03 (μM)/Cre(μM) | 0.18 ± 0.04 (μM)/Cre(μM) | 0.34 ± 0.09 (μM)/Cre(μM) | 1.00 ± 0.00 (μM)/Cre(μM) | lowered blood glucose levels to the same extent as control | renal function was protected | 19.4 | 7.1 | 25.1 ± 3.7 | 0.28 ± 0.04 | 3.23 ± 0.59 | 1054 ug/16 h | 4.44^† | 3.2 mg/16 h | 
CC/C=C\C/C=C\C/C=C\C/C=C\C/C=C\CCCC(=O)OCC [EPA-EE, ethyl esters of eicosapentaenoic acid] |  |  |  |  | no effect was observed | renal function was protected |  |  |  |  |  |  |  |  | 
CC/C=C\C/C=C\C/C=C\C/C=C\C/C=C\C/C=C\CCC(=O)OCC(COC(=O)CC/C=C\C/C=C\C/C=C\C/C=C\C/C=C\C/C=C\CC)OC(=O)CC/C=C\C/C=C\C/C=C\C/C=C\C/C=C\C/C=C\CC [Tri-DHA-TG, tridocosahexaenoyl triglyceride] | 0.12 ± 0.04 (μM)/Cre(μM) | 0.19 ± 0.03 (μM)/Cre(μM) | 0.42 ± 0.08 (μM)/Cre(μM) | 1.00 ± 0.00 (μM)/Cre(μM) |  |  | 21.1 | 11.4 | 25.1 ± 4.2 | 0.28 ± 0.06 | 3.02 ± 0.47 | 544.95^† ug/16 h | 1.85^† | 3.2^† mg/16 h | more significant differences
triglycerides of DHA [DHA-TAG] |  |  |  |  | lowered blood glucose levels to the same extent as control |  |  |  |  |  |  |  |  |  | 
triglycerides of EPA [EPA-TAG] |  |  |  |  | no effect was observed |  |  |  |  |  |  |  |  |  | 
